Results published in patent US8415272B2, “Quinoline derivatives and their use as fungicides” (Syngenta Crop Protection LLC, priority 2008, dated 2013).

Tests used:
Plasmopara viticola = assay: Leaf disk assay, Plasmopara viticola (downy mildew of grapevine), preventive; format: in vivo; settings: foliar, 168 h, grapevine leaf disks, assessed seven days after inoculation, read-out: control of fungal infection, Plasmopara viticola
Septoria tritici = assay: Growth inhibition in nutrient broth, Septoria tritici (leaf blotch), photometric; format: cell-based; settings: Zymoseptoria tritici, PDB broth, 24 C, 72 hrs, read-out: control of fungal infection, Septoria tritici
Pyrenophora teres = assay: Leaf disk assay, Pyrenophora teres (barley net blotch), preventive; format: in vivo; settings: foliar, 96 h, barley leaf segments, assessed four days after inoculation, read-out: control of fungal infection, Pyrenophora teres
Protocol: The compounds were tested in a leaf disk assay, with methods described below. The test compounds were dissolved in DMSO and diluted into water to 200 ppm. In the case of the test on Pythium ultimum, they were dissolved in DMSO and diluted into water to 20 ppm. Pyrenophora teres (barley net blotch): Barley leaf segments were placed on agar in a 24-well plate and sprayed with a solution of the test compound. After allowing to dry completely, for between 12 and 24 hours, the leaf disks were inoculated with a spore suspension of the fungus. After appropriate incubation the activity of a compound was assessed four days after inoculation as preventive fungicidal activity.

Septoria nodorum = assay: Leaf disk assay, Septoria nodorum (wheat glume blotch), preventive; format: in vivo; settings: Parastagonospora nodorum, foliar, 96 h, wheat leaf segments, assessed four days after inoculation, read-out: control of fungal infection, Septoria nodorum
[1] = test system: Puccinia recondita f.sp. tritici; assay: Leaf disk assay, Puccinia recondita f.sp. tritici (wheat brown rust), preventive; format: in vivo; settings: foliar, 216 h, wheat leaf segments, assessed nine days after inoculation, read-out: control of fungal infection, Puccinia recondita f.sp. tritici
Phytophthora infestans = assay: whole plant or invertebrate; format: in vivo; settings: in Solanum lycopersicum, foliar, 96 h, read-out: control of fungal infection, Phytophthora infestans
[2] = test system: Erysiphe graminis f.sp. tritici; assay: Leaf disk assay, Erysiphe graminis f.sp. tritici (wheat powdery mildew), preventive; format: in vivo; settings: Blumeria graminis, foliar, 96 h, wheat leaf segments, assessed four days after inoculation, read-out: control of fungal infection, Erysiphe graminis f.sp. tritici
Method in brief: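 Preventive protocol: compound at 200 ppm in water (from DMSO) sprayed onto wheat leaf segments on agar, dried 12–24 h, then spore-inoculated. Fungicidal activity was assessed four days post-inoculation.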

Fusarium culmorum = assay: Growth inhibition in nutrient broth, Fusarium culmorum (root rot), photometric; format: cell-based; settings: 48 h, read-out: control of fungal infection, Fusarium culmorum
Method in brief: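 Fusarium culmorum conidia in potato dextrose broth were added to compounds in DMSO. Plates were incubated at 24 C for 48 hrs, with growth inhibition read photometrically. […]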

Pythium ultimum = assay: Growth inhibition in potato dextrose broth, Pythium ultimum (damping off), photometric; format: cell-based; settings: Globisporangium ultimum, 24° C., 48 hours, read-out: control of fungal infection, Pythium ultimum
Method in brief: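 Growth inhibition was read photometrically at 48 hours after incubation at 24° C. Test compound was diluted from DMSO to 20 ppm in water and combined with potato dextrose broth seeded with Pythium ultimum mycelial fragments.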

C#Cc1cnc2c(C)cc(OC(CC)C(=O)NC(C)(C)C#CC)cc2c1 (centres unmarked) [Example 113]
≥ 60%: pest or weed control at 200 ppm (Plasmopara viticola) | inhibition of growth at 60 ppm (Septoria tritici) | pest or weed control at 200 ppm (Pyrenophora teres) | pest or weed control at 200 ppm (Septoria nodorum) | pest or weed control at 200 ppm [1] | pest or weed control at 200 ppm (Phytophthora infestans) | pest or weed control at 200 ppm [2]

C#Cc1cnc2c(Cl)cc(OC(SC)C(=O)NC(C)(C)C#C)cc2c1 (centres unmarked) [Example 19]
≥ 60%: pest or weed control at 200 ppm (Plasmopara viticola) | pest or weed control at 200 ppm (Pyrenophora teres) | pest or weed control at 200 ppm (Septoria nodorum) | pest or weed control at 200 ppm [1] | pest or weed control at 200 ppm (Phytophthora infestans) | pest or weed control at 200 ppm [2]

C#Cc1cnc2c(C)cc(OC(SC)C(=O)NC(C)(C#N)CF)cc2c1 (centres unmarked) [Example 102]
≥ 60%: pest or weed control at 200 ppm (Pyrenophora teres) | pest or weed control at 200 ppm [1]

C#Cc1cnc2c(C)cc(OC(SC)C(=O)NC(C)(COC)COC)cc2c1 (centres unmarked) [Example 133]
≥ 60%: pest or weed control at 200 ppm (Plasmopara viticola) | inhibition of growth at 60 ppm (Septoria tritici) | pest or weed control at 200 ppm (Pyrenophora teres) | pest or weed control at 200 ppm (Septoria nodorum) | pest or weed control at 200 ppm [1] | pest or weed control at 200 ppm (Phytophthora infestans) | pest or weed control at 200 ppm [2]

C#Cc1cnc2ccc(OC(SC)C(=O)NCC)cc2c1 (centres unmarked) [Example 97]
≥ 60%: inhibition of growth at 60 ppm (Fusarium culmorum) | pest or weed control at 200 ppm (Plasmopara viticola) | inhibition of growth at 60 ppm (Septoria tritici) | pest or weed control at 200 ppm (Septoria nodorum) | pest or weed control at 200 ppm [1] | inhibition of growth at 20 ppm (Pythium ultimum) | pest or weed control at 200 ppm (Phytophthora infestans) | pest or weed control at 200 ppm [2]

C#CCC(C)(C)NC(=O)C(Oc1cc2cc(C#C)cnc2cc1F)SC (centres unmarked) [Example 187]
≥ 60%: inhibition of growth at 60 ppm (Fusarium culmorum) | pest or weed control at 200 ppm (Plasmopara viticola) | inhibition of growth at 60 ppm (Septoria tritici) | pest or weed control at 200 ppm (Septoria nodorum) | pest or weed control at 200 ppm [1] | inhibition of growth at 20 ppm (Pythium ultimum) | pest or weed control at 200 ppm (Phytophthora infestans) | pest or weed control at 200 ppm [2]

C#Cc1cnc2cc(F)c(OC(SC)C(=O)NC(C)(C#C)CC)cc2c1 (centres unmarked) [Example 188]
≥ 60%: inhibition of growth at 60 ppm (Fusarium culmorum) | pest or weed control at 200 ppm (Plasmopara viticola) | inhibition of growth at 60 ppm (Septoria tritici) | pest or weed control at 200 ppm (Septoria nodorum) | pest or weed control at 200 ppm [1] | inhibition of growth at 20 ppm (Pythium ultimum) | pest or weed control at 200 ppm (Phytophthora infestans) | pest or weed control at 200 ppm [2]

C#Cc1cnc2ccc(OC(SC)C(=O)NC3CC3)cc2c1 (centres unmarked) [Example 212]
≥ 60%: inhibition of growth at 60 ppm (Fusarium culmorum) | pest or weed control at 200 ppm (Plasmopara viticola) | inhibition of growth at 60 ppm (Septoria tritici) | pest or weed control at 200 ppm (Septoria nodorum) | pest or weed control at 200 ppm [1] | inhibition of growth at 20 ppm (Pythium ultimum) | pest or weed control at 200 ppm (Phytophthora infestans) | pest or weed control at 200 ppm [2]

C#Cc1cnc2cc(F)c(OC(SC)C(=O)NC(C)(C)C#CCOCC=C)cc2c1 (centres unmarked) [Example 199]
≥ 60%: inhibition of growth at 60 ppm (Fusarium culmorum) | pest or weed control at 200 ppm (Plasmopara viticola) | inhibition of growth at 60 ppm (Septoria tritici) | pest or weed control at 200 ppm (Septoria nodorum) | pest or weed control at 200 ppm [1] | inhibition of growth at 20 ppm (Pythium ultimum) | pest or weed control at 200 ppm (Phytophthora infestans) | pest or weed control at 200 ppm [2]
